Experimental data published in US20240010635A1, “NOVEL INDIRUBIN DERIVATIVES HAVING HETEROBICYCLIC MOIETIES AND THE USE THEREOF” (priority 2022, published 2024).
Numbering of substitutions follows the chain as printed.

What was measured:
Format in all cases: biochemical
FLT3 D835Y = biological target: T1, FLT3 D835Y (Homo sapiens, UniProt P36888, D835Y); experiment: ADP-Glo kinase assay, FLT3 D835Y; details: recombinant FLT3 (D835Y), 120 min room temperature, read-out: Enzyme activity (IC50, nM) FLT3 D835Y
T1 construct: Recombinant proteins containing the FLT3 and FLT3 (D835Y) domains were purchased from Promega; purchased Promega V4514
T1 sequence (P36888 610-943 D835Y limits assumed): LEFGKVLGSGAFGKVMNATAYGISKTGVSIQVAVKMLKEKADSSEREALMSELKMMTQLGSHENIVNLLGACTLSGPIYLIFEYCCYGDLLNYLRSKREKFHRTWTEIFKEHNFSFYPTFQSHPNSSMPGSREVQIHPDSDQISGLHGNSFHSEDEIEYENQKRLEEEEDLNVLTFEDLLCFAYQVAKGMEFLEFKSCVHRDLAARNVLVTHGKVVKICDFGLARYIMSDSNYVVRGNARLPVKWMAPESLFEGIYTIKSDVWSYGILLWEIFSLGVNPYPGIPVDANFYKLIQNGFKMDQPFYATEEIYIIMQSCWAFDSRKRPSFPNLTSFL
Description: (§1) FLT3 activity inhibition was measured by ADP-Glo kinase assay (Promega, cat #V9101). ADP-Glo kinase analysis method is an emission ADP detect method which measures kinase activity by quantification of ADP amount produced during kinase reaction and provides uniform high-throughput screening method.
(§2) Analysis performed in two steps. First, after kinase reaction, ADP-Glo™ reagent of equal volume was added to finish kinase reaction, and then the rest ATP was exhausted. Second, Kinase Detection Reagent was added to convert ADP to ATP and newly synthesized ATP was measured by luciferase/luciferin reaction at the same time. Generated light was measured by using luminometer. The measured luminescence amount can be applied to the ATP→ADP standard conversion curve to confirm the correlation with the ADP concentration.
(§3) Recombinant proteins containing the FLT3 and FLT3 (D835Y) domains were purchased from Promega (cat #V4064, cat #V4514), respectively. According to the manufacturer's instructions, optimal enzyme, ATP, and substrate concentration were established using the ADP-Glo™ Kinase Assay (Promega, USA). Kinase reaction buffer 5× (200 mM Tris-HCl, pH 7.5, 100 mM MgCl2, 0.5 mg/ml BSA) was diluted and used, and the diluted compound of the present invention (5×, 1 μl), FLT3 enzyme or FLT3/D835Y enzyme (2.5×, 2 μl) and substrate/ATP mixture (2.5×, 2 μl), were mixed sequentially and reacted at room temperature for 120 minutes. Then, ADP-Glo™ Reagent (5 μl) was added and reacted for 40 min at room temperature. Finally, after adding a reagent for detection (Kinase Detection Reagent, 10 μl), reacting at room temperature for 30 min, and then phosphorylation of substrate peptide was measured by measuring luciferase signal (Integration time 0.5-1 second) using SpectraMax ID5 reader (Molecular Devices LLC., San Jose, CA, USA). IC50 was calculated by nonlinear regression using Prism version 5.01 (GrapghPad).

RET V804L = biological target: T2, RET V804L (Homo sapiens, UniProt P07949, V804L); experiment: ADP-Glo kinase assay, RET V804L; details: recombinant RET (V804L), 120 min room temperature, read-out: Enzyme activity (IC50, nM) RET V804L
T2 construct: Recombinant proteins containing RET wt, RET (M918T) and RET (V804L) domains were purchased from Promega; purchased Promega V4473
T2 sequence (P07949 724-1016 V804L limits assumed): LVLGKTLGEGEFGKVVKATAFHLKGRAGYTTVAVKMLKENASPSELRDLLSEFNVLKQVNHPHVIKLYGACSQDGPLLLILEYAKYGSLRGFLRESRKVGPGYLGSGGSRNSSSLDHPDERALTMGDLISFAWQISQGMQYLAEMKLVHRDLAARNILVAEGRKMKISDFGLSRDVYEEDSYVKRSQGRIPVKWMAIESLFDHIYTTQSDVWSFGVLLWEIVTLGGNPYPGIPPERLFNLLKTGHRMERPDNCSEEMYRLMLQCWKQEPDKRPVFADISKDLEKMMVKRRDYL
Description: as §2
Recombinant proteins containing RET wt, RET (M918T) and RET (V804L) domains were purchased from Promega (cat #V8061, cat #VA7274, cat #V4473), respectively. According to the manufacturer's instructions, optimal enzyme, ATP, and substrate concentration were established using ADP-Glo™ Kinase Assay (Promega, USA). […] Then, ADP-Glo™ Reagent (5 μl) was added and reacted at room temperature for further 40 min. Lastly, Kinase Detection Reagent (10 μl) was added and reacted for 30 min more at room temperature, and then phosphorylation of substrate peptide was measured by measuring luciferase signal (Integration time 0.5-1 second) using SpectraMax ID5 reader (Molecular Devices LLC., San Jose, CA, USA). IC50 was calculated by nonlinear regression using Prism version 5.01 (GrapghPad).

FLT3 WT = biological target: T3, FLT3 WT (Homo sapiens, UniProt P36888); experiment: ADP-Glo kinase assay, FLT3 WT; details: recombinant FLT3, ADP-Glo, 120 min room temperature; read-out: Enzyme activity (IC50, nM) FLT3 WT
T3 construct: Recombinant proteins containing the FLT3 and FLT3 (D835Y) domains were purchased from Promega; purchased Promega V4064
T3 sequence (P36888 610-943 limits assumed): T1 sequence (P36888 610-943 D835Y limits assumed) with Y226D
Description: as §1, §2, §3

Row | Structure (SMILES) | IC50 (FLT3 D835Y) | IC50 (RET V804L) | IC50 (FLT3 WT)
1 | O=C1Nc2ccccc2/C1=C1/Nc2ccccc2/C1=N\OCCN1CC2(CNC2)C1 [Example 1, (2Z,3E)-3-((2-(2,6-diazaspiro[3.3]heptan-2-yl)ethoxy)imino)-[2,3′-biindolinylidene]-2′-one] | 0.329 nM | 1.3 nM | 1.42 nM
2 | O=C1Nc2ccccc2/C1=C1/Nc2ccccc2/C1=N\OCCN[C@H]1[C@@H]2CNC[C@@H]21 [Example 2, (2Z,3E)-3-((2-((1R,5S,6s)-3-azabicyclo[3.1.0]hexan-6-ylamino)ethoxy)imino)-[2,3′-biindolinylidene]-2′-one] | 0.524 nM | 0.553 nM | 2.49 nM
3 | N[C@@H]1[C@H]2CN(CCO/N=C3/C(=C4/C(=O)Nc5ccccc54)Nc4ccccc43)C[C@@H]12 [Example 3, (2Z,3E)-3-((2-((1R,5S,6s)-6-amino-3-azabicyclo[3.1.0]hexan-3-yl)ethoxy)imino)-[2,3′-biindolinylidene]-2′-one] | 0.303 nM | 1.27 nM | 3.78 nM
4 | O=C1Nc2ccccc2/C1=C1/Nc2ccccc2/C1=N\OCCN1C[C@H]2C[C@@H]1CN2 [Example 4, (2Z,3E)-3-((2-((1R,4R)-2,5-diazabicyclo[2.2.1]heptan-2-yl)ethoxy)imino)-[2,3′-biindolinylidene]-2′-one] | 0.216 nM | 0.212 nM | 1.37 nM
5 | O=C1Nc2ccccc2/C1=C1/Nc2ccccc2/C1=N\OCCN1C[C@@H]2C[C@H]1CN2 [Example 5, (2Z,3E)-3-((2-((1S,4S)-2,5-diazabicyclo[2.2.1]heptan-2-yl)ethoxy)imino)-[2,3′-biindolinylidene]-2′-one] | 0.135 nM | 0.851 nM | 1.57 nM
6 | O=C1Nc2ccc(F)cc2/C1=C1/Nc2ccccc2/C1=N\OCCN1CC2(CNC2)C1 [Example 6, (2Z,3E)-3-((2-(2,6-diazaspiro[3.3]heptan-2-yl)ethoxy)imino)-5′-fluoro-[2,3′-biindolinylidene]-2′-one] | 0.488 nM | 0.797 nM | 2.44 nM
7 | O=C1Nc2ccc(F)cc2/C1=C1/Nc2ccccc2/C1=N\OCCN[C@H]1[C@@H]2CNC[C@@H]21 [Example 7, (2Z,3E)-3-((2-((1R,5S,6s)-3-azabicyclo[3.1.0]hexan-6-ylamino)ethoxy)imino)-5′-fluoro-[2,3′-biindolinylidene]-2′-one] | 0.37 nM | 0.742 nM | 1.47 nM
8 | N[C@@H]1[C@H]2CN(CCO/N=C3/C(=C4/C(=O)Nc5ccc(F)cc54)Nc4ccccc43)C[C@@H]12 [Example 8, (2Z,3E)-3-((2-((1R,5S,6s)-6-amino-3-azabicyclo[3.1.0]hexan-3-yl)ethoxy)imino)-5′-fluoro-[2,3′-biindolinylidene]-2′-one] | 0.303 nM | 0.54 nM | 1.35 nM
9 | O=C1Nc2ccc(F)cc2/C1=C1/Nc2ccccc2/C1=N\OCCN1C[C@H]2C[C@@H]1CN2 [Example 9, (2Z,3E)-3-((2-((1R,4R)-2,5-diazabicyclo[2.2.1]heptan-2-yl)ethoxy)imino)-5′-fluoro-[2,3′-biindolinylidene]-2′-one] | 0.667 nM | 0.785 nM | 3.87 nM
10 | O=C1Nc2ccc(F)cc2/C1=C1/Nc2ccccc2/C1=N\OCCN1C[C@@H]2C[C@H]1CN2 [Example 10, (2Z,3E)-3-((2-((1S,4S)-2,5-diazabicyclo[2.2.1]heptan-2-yl)ethoxy)imino)-5′-fluoro-[2,3′-biindolinylidene]-2′-one] | 0.428 nM | 0.511 nM | 2.41 nM
11 | O=C1Nc2ccc(Cl)cc2/C1=C1/Nc2ccccc2/C1=N\OCCN1C[C@H]2C[C@@H]1CN2 [Example 11, (2Z,3E)-3-((2-((1R,4R)-2,5-diazabicyclo[2.2.1]heptan-2-yl)ethoxy)imino)-5′-chloro-[2,3′-biindolinylidene]-2′-one] | 0.553 nM | 1.02 nM | 4.57 nM
12 | O=C1Nc2ccc(Br)cc2/C1=C1/Nc2ccccc2/C1=N\OCCN1C[C@H]2C[C@@H]1CN2 [Example 13, (2Z,3E)-3-((2-((1R,4R)-2,5-diazabicyclo[2.2.1]heptan-2-yl)ethoxy)imino)-5′-bromo-[2,3′-biindolinylidene]-2′-one] | 0.686 nM | 0.376 nM | 4.72 nM
13 | O=C1Nc2ccccc2/C1=C1/Nc2ccccc2/C1=N\OCC(=O)N1CC2(CNC2)C1 [Example 15, (2Z,3E)-3-((2-oxo-2-(2,6-diazaspiro[3.3]heptan-2-yl)ethoxy)imino)-[2,3′-biindolinylidene]-2′-one] | 0.798 nM | 0.37 nM | 3.41 nM
14 | O=C(CO/N=C1/C(=C2/C(=O)Nc3ccccc32)Nc2ccccc21)N[C@H]1[C@@H]2CNC[C@@H]21 [Example 16, N-((1R,5S,6s)-3-azabicyclo[3.1.0]hexan-6-yl)-2-(((E)-((Z)-2′-oxo-[2,3′-biindolinylidene]-3-ylidene)amino)oxy)acetamide] | 0.661 nM | 0.472 nM | 3.13 nM
15 | O=C1Nc2ccccc2/C1=C1/Nc2ccccc2/C1=N\OCC(=O)N1C[C@H]2C[C@@H]1CN2 [Example 17, (2Z,3E)-3-((2-((1R,4R)-2,5-diazabicyclo[2.2.1]heptan-2-yl)-2-oxoethoxy)imino)-[2,3′-biindolinylidene]-2′-one] | 0.552 nM | 0.904 nM | 4.24 nM
16 | O=C1Nc2ccc(F)cc2/C1=C1/Nc2ccccc2/C1=N\OCC(=O)N1CC2(CNC2)C1 [Example 18, (2Z,3E)-5′-fluoro-3-((2-oxo-2-(2,6-diazaspiro[3.3]heptan-2-yl)ethoxy)imino)-[2,3′-biindolinylidene]-2′-one] | 0.306 nM | 0.657 nM | 2.15 nM
17 | O=C(CO/N=C1/C(=C2/C(=O)Nc3ccc(F)cc32)Nc2ccccc21)N[C@H]1[C@@H]2CNC[C@@H]21 [Example 19, N-((1R,5S,6s)-3-azabicyclo[3.1.0]hexan-6-yl)-2-(((E)-((Z)-5′-fluoro-2′-oxo-[2,3′-biindolinylidene]-3-ylidene)amino)oxy)acetamide] | 0.511 nM | 0.419 nM | 3.13 nM
